# According to patent US8039506B2, “Bicyclic lactam factor VIIa inhibitors useful as anticoagulants” (Bristol-Myers Squibb Company, priority 2006, dated 2011):
# Values joined by “and” are separate entries in the source; they are usually repeats but may differ in a detail not shown here. Equal values may be shown once.
# Target: T1, human Factor VIIa (Homo sapiens, UniProt P08709)
# T1 construct: with about 1% of the total amount in the proteolytically active form factor VIIa; purchased Haematologic Technologies (plasma-purified) or Novo Nordisk (recombinant)
# Assay: Factor VIIa assay (hydrolysis of chromogenic substrate, Ki)
# Type: biochemical
# Settings: several values in one cell = repeat determinations
# T1 sequence (P08709 213-466 limits assumed): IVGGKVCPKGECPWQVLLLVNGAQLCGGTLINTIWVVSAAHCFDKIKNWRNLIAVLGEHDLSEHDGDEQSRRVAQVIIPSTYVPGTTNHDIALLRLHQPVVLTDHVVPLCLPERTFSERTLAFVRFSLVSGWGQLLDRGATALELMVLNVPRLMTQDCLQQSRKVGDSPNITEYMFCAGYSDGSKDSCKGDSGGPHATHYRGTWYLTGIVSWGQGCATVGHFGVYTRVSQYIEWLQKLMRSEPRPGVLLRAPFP
# T1 sequence (P08709 61-212 limits assumed): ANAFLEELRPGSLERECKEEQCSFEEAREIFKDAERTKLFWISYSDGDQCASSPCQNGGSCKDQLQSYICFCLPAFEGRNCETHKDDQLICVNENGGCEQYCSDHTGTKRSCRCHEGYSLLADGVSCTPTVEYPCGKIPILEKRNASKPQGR
# T1 sequence (P13726 33-251 partner limits assumed): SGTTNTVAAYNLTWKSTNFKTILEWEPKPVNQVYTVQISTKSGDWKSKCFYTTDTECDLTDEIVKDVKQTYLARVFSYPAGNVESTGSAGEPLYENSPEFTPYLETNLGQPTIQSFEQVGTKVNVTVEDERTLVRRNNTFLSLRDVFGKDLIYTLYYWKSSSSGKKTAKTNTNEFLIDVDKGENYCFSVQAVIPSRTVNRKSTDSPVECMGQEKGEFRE
row,SMILES,Ki
1,"COC(=O)Nc1ccc(S(=O)(=O)C(C)C)c([C@H]2CCCN2C(=O)C(Nc2ccc(F)c3c2CNC3=O)c2ccc(OC)c(OC)c2)c1 (single isomer, unassigned) [Example 6]",> 13000 nM
2,"CC[C@H]1CNC(=O)c2cc(NC(C(=O)N3CCC[C@@H]3c3cc(NC(=O)OC)ccc3S(=O)(=O)C(C)C)c3ccc(OC)c(OC)c3)ccc21 (single isomer, unassigned) [Example 18]",41 nM and 88 nM
3,"COC(=O)Nc1ccc(S(=O)(=O)C2CC2)c([C@H]2CCCN2C(=O)[C@H](Nc2ccc3nc[nH]c(=O)c3c2)c2ccc(F)c(OC)c2)c1 (single isomer, unassigned) [Example 22]",< 5 nM and 3.5 nM
4,"COc1cc([C@@H](Nc2ccc3c(c2)C(=O)NC3)C(=O)N2CC[C@H](C(=O)O)[C@@H]2c2ccccc2S(=O)(=O)C2CC2)ccc1F [Example 28, (2R,3S)-2-(2-(cyclopropylsulfonyl)phenyl)-1-((R)-2-(4-fluoro-3-methoxyphenyl)-2-(3-oxoisoindolin-5-ylamino)acetyl)pyrrolidine-3-carboxylic acid]",60 nM
